molecular target: T1, SARM1 (50-724) (Homo sapiens, UniProt Q6SZW1); experiment: biochemical
T1 sequence (Q6SZW1 50-724): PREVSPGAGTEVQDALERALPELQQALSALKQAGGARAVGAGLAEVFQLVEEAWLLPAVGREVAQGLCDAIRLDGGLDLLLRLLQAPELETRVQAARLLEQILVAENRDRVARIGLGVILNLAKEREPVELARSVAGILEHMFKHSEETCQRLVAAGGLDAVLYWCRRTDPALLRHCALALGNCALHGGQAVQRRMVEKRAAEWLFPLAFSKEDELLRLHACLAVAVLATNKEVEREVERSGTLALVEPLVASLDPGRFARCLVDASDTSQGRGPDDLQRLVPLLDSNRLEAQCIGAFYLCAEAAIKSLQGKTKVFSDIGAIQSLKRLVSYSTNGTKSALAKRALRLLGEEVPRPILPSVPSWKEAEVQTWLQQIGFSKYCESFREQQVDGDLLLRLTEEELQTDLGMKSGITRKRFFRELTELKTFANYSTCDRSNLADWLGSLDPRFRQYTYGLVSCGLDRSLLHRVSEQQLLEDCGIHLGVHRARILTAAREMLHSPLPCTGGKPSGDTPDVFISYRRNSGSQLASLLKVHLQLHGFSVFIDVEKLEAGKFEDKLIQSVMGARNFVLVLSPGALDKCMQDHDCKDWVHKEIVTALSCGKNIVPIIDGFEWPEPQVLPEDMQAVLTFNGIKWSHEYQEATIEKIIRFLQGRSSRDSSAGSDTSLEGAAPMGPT
Protocol: An enzymatic assay was performed in a 384-well plate using Dulbecco's phosphate-buffered saline (PBS) as the reaction buffer. […] The reaction was initiated by adding a mixture of 200 μM nicotinamide mononucleotide (NMN) as activator and 100 μM NAD^+ as substrate. After 1 h of incubation at room temperature, the reaction was terminated with 10 times volume of 70% acetonitrile, then centrifuged at 3800 rpm for 10 min.

Question: For `CC(Nc1ccc2cccnc2c1)c1cccc(Cl)c1Cl` (racemic) [Example 129, N-(1-(2,3-dichlorophenyl)ethyl)quinolin-7-amine], which IC50 is on record?
Answer: The IC50 was 500 to 1000 nM.

Question: For `CC(Nc1ccc2cc[nH]c(=O)c2c1)c1cc(Cl)ccc1Cl` (racemic) [Example 132, 7-((1-(2,5-dichlorophenyl)ethyl)amino)isoquinolin-1(2H)-one], which IC50 is on record?
Answer: The IC50 was less than 100 nM.

Question: How did the IC50 turn out when `CC(Nc1cc(F)c2ncn(-c3ccn[nH]3)c(=O)c2c1)c1nc(Cl)c(Cl)s1` (single isomer, unassigned) [Example 356A] was run?
Answer: The IC50 was greater than 1000 nM.

Question: `CC(Nc1ccc2c(c1)C(=O)NCC2)c1cc(Cl)nc(Cl)c1` (racemic) [Example 98, 7-((1-(2,6-dichloropyridin-4-yl)ethyl)amino)-3,4-dihydroisoquinolin-1(2H)-one] was tested. Which IC50 did it give?
Answer: The IC50 was greater than 1000 nM.

Question: With `CC(Nc1ccc2c(C(F)F)n(CC(N)=O)nc2c1)c1nc(Cl)c(Cl)s1` (single isomer, unassigned) [Compound 355B] as the molecule, how does the IC50 read?
Answer: The IC50 was greater than 1000 nM.

Question: `Cc1cc(S(=O)(=O)Nc2ccc(CC(N)=O)cc2)c(F)cc1F` [Example 8A] was tested. Which IC50 did it give?
Answer: Its IC50 is greater than 1000 nM.

Question: With `Cc1ccc(C)c(S(=O)(=O)Nc2ccc3c(c2)C(=O)NCC3)c1` [Example 2A, 2,5-dimethyl-N-(1-oxo-1,2,3,4-tetrahydroisoquinolin-7-yl)benzenesulfonamide] as the molecule, how does the IC50 read?
Answer: The IC50 was greater than 1000 nM.

Question: How did the IC50 turn out when `Cc1n[nH]c(=O)c2cc(NC(C)c3cncc(Cl)c3Cl)ccc12` (racemic) [Compound 275, 7-((1-(4,5-dichloropyridin-3-yl)ethyl)amino)-4-methylphthalazin-1(2H)-one] was run?
Answer: The IC50 was less than 100 nM.

Question: With `CC(Nc1ccc2ncn(C)c(=O)c2c1)c1cccc(Cl)c1Cl` (racemic) [Example 133, 6-((1-(2,3-dichlorophenyl)ethyl)amino)-3-methylquinazolin-4(3H)-one] as the molecule, how does the IC50 read?
Answer: The IC50 was 100 to 500 nM.

Question: `Cc1ccnc2cc(NS(=O)(=O)c3cccc(Cl)c3Cl)ccc12` [Compound 16, 2,3-dichloro-N-(4-methylquinolin-7-yl)benzenesulfonamide] was tested. Which IC50 did it give?
Answer: The IC50 was 100 to 500 nM.

Question: With `O=C1NCCc2cc(Cl)c(NS(=O)(=O)c3cccc(Cl)c3Cl)cc21` [Compound 47, 2,3-dichloro-N-(6-chloro-1-oxo-1,2,3,4-tetrahydroisoquinolin-7-yl)benzenesulfonamide] as the molecule, how does the IC50 read?
Answer: The IC50 was greater than 1000 nM.

Question: With `CC(Nc1ccc2c(c1)C(=O)NCC2)c1cc(F)cc(Cl)c1` (racemic) [Example 101, 7-((1-(3-chloro-5-fluorophenyl)ethyl)amino)-3,4-dihydroisoquinolin-1(2H)-one] as the molecule, how does the IC50 read?
Answer: Its IC50 is 100 to 500 nM.

Question: For `Cc1nc(C(C)Nc2ccc3c(C)n(CC(N)=O)nc3c2)sc1Cl` (single isomer, unassigned) [Compound 362], which IC50 is on record?
Answer: The IC50 was less than 100 nM.

Question: How did the IC50 turn out when `CC(Nc1ccc2cc[nH]c(=O)c2c1)c1nc(Cl)sc1Cl` (racemic) [Compound 190, 7-((1-(2,5-dichlorothiazol-4-yl)ethyl)amino)isoquinolin-1(2H)-one] was run?
Answer: The IC50 was 100 to 500 nM.

Question: How did the IC50 turn out when `O=C1NCCc2ccc(NS(=O)(=O)N3CC4CCCC4C3)cc21` (stereo not shown) [Compound 49, N-(1-oxo-3,4-dihydro-2H-isoquinolin-7-yl)-3,3a,4,5,6,6a-hexahydro-1H-cyclopenta[c]pyrrole-2-sulfonamide] was run?
Answer: The IC50 was greater than 1000 nM.

Question: Which IC50 does the source give for `Cc1n[nH]c(=O)c2cc(N[C@H](C)c3c(Cl)ccc(F)c3Cl)ccc12` (single isomer, unassigned) [Example 237A] here?
Answer: The IC50 was 500 to 1000 nM.

Question: How did the IC50 turn out when `CC(Nc1ccc2c(C(F)F)n(CC(N)=O)nc2c1)c1nc(Cl)c(Cl)s1` (single isomer, unassigned) [Compound 355A] was run?
Answer: Its IC50 is less than 100 nM.

Question: Which IC50 does the source give for `Cc1cn(CC(N)=O)c(=O)c2nc(NC(C)c3nn(C)c(Cl)c3Cl)ccc12` (racemic) [Compound 324, 2-(2-((1-(4,5-dichloro-1-methyl-1H-pyrazol-3-yl)ethyl)amino)-5-methyl-8-oxo-1,7-naphthyridin-7(8H)-yl)acetamide] here?
Answer: The IC50 was less than 100 nM.

Question: Which IC50 does the source give for `Cc1c(Cl)c(C(C)Nc2ccc3cc[nH]c(=O)c3c2)nn1C` (single isomer, unassigned) [Compound 226B] here?
Answer: The IC50 was less than 100 nM.

Question: With `CC(Nc1ccc2nc[nH]c(=O)c2c1)c1c(Cl)ccc(F)c1Cl` (racemic) [Example 193, 6-((1-(2,6-dichloro-3-fluorophenyl)ethyl)amino)quinazolin-4(3H)-one] as the molecule, how does the IC50 read?
Answer: The IC50 was less than 100 nM.

Question: For `CC(Nc1ccc2ccn(CC3CC3)c(=O)c2c1)c1cccc(Cl)c1Cl` (racemic) [Compound 186, 2-(cyclopropylmethyl)-7-((1-(2,3-dichlorophenyl)ethyl)amino)isoquinolin-1(2H)-one], which IC50 is on record?
Answer: Its IC50 is 100 to 500 nM.

Question: `CC(Nc1ccc2c(c1)NC(=O)CC2)c1nc(Cl)c(Cl)s1` (racemic) [Compound 230, 7-[1-(4,5-dichlorothiazol-2-yl)ethylamino]-3,4-dihydro-1H-quinolin-2-one] was tested. Which IC50 did it give?
Answer: The IC50 was 100 to 500 nM.

Question: How did the IC50 turn out when `O=C1CCCc2ccc(NS(=O)(=O)c3cccc(Cl)c3Cl)cc2N1` [Compound 84, 2,3-dichloro-N-(2-oxo-2,3,4,5-tetrahydro-1H-benzo[b]azepin-8-yl)benzenesulfonamide] was run?
Answer: The IC50 was less than 100 nM.

Question: With `Cc1n[nH]c2cc(NS(=O)(=O)c3cccc(Cl)c3Cl)ccc12` [Compound 58, 2,3-dichloro-N-(3-methyl-1H-indazol-6-yl)benzenesulfonamide] as the molecule, how does the IC50 read?
Answer: The IC50 was less than 100 nM.

Question: For `Cc1c(Cl)cccc1S(=O)(=O)Nc1ccc2c(c1)C(=O)NCC2` [Example 5A, 3-chloro-2-methyl-N-(1-oxo-1,2,3,4-tetrahydroisoquinolin-7-yl)benzenesulfonamide], which IC50 is on record?
Answer: Its IC50 is less than 100 nM.

Question: Which IC50 does the source give for `CC(Nc1ccc2cn[nH]c(=O)c2c1)c1cc(F)cc(Cl)c1Cl` (racemic) [Example 200, 7-((1-(2,3-dichloro-5-fluorophenyl)ethyl)amino)phthalazin-1(2H)-one] here?
Answer: Its IC50 is 100 to 500 nM.

Question: With `CC(Nc1ccc2cc[nH]c(=O)c2c1)c1cnc(Cl)c(Cl)c1` (racemic) [Example 107, 7-((1-(5,6-dichloropyridin-3-yl)ethyl)amino)isoquinolin-1(2H)-one] as the molecule, how does the IC50 read?
Answer: The IC50 was 100 to 500 nM.

Question: Which IC50 does the source give for `CC(Nc1ccc2cc[nH]c(=O)c2c1)c1nccc(Cl)c1Cl` (racemic) [Example 118, 7-((1-(3,4-dichloropyridin-2-yl)ethyl)amino)isoquinolin-1(2H)-one] here?
Answer: Its IC50 is less than 100 nM.

Question: How did the IC50 turn out when `CC(Nc1ccc2c(c1)C(=O)NCC2)c1cccc(Cl)c1Cl` (racemic) [Example 100, 7-((1-(2,3-dichlorophenyl)ethyl)amino)-3,4-dihydroisoquinolin-1(2H)-one] was run?
Answer: Its IC50 is 100 to 500 nM.

Question: Which IC50 does the source give for `COC(=O)C1Cc2ccc(NS(=O)(=O)c3cccc(Cl)c3Cl)cc2C(=O)N1` (racemic) [Compound 90, methyl 7-((2,3-dichlorophenyl)sulfonamido)-1-oxo-1,2,3,4-tetrahydroisoquinoline-3-carboxylate] here?
Answer: Its IC50 is 100 to 500 nM.

Question: `O=C1NCCc2ccc(NS(=O)(=O)c3ccc(F)c(Cl)c3)cc21` [Example 9A, 3-chloro-4-fluoro-N-(1-oxo-1,2,3,4-tetrahydroisoquinolin-7-yl)benzenesulfonamide] was tested. Which IC50 did it give?
Answer: The IC50 was greater than 1000 nM.

Question: For `Cc1cc(F)cc(C(C)Nc2ccc3c(c2)C(=O)NCC3)c1` (racemic) [Example 93, 7-((1-(3-fluoro-5-methylphenyl)ethyl)amino)-3,4-dihydroisoquinolin-1(2H)-one], which IC50 is on record?
Answer: Its IC50 is 500 to 1000 nM.

Question: Which IC50 does the source give for `CC(Nc1cc(F)c2ncn(CC(N)=O)c(=O)c2c1)c1nc(Cl)c(Cl)s1` (single isomer, unassigned) [Compound 323] here?
Answer: The IC50 was less than 100 nM.

Question: How did the IC50 turn out when `O=C1NCCc2ccc(NS(=O)(=O)c3cccc(Cl)c3Cl)cc21` [Compound 20, 2,3-dichloro-N-(1-oxo-1,2,3,4-tetrahydroisoquinolin-7-yl)benzenesulfonamide] was run?
Answer: Its IC50 is less than 100 nM.

From patent publication US20250320184A1 (SIRONAX LTD., priority 2022, published 2025)
